This is an account of results in PMC10023787, “Trio-pharmacophore DNA-encoded chemical library for simultaneous selection of fragments and linkers” (Nature Communications, 2023).

One assay addresses T1, MMP-2 (Homo sapiens, UniProt P08253).
T1 construct: purchased Sino Biological 10082-HNAH
T1 sequence (P08253 110-660): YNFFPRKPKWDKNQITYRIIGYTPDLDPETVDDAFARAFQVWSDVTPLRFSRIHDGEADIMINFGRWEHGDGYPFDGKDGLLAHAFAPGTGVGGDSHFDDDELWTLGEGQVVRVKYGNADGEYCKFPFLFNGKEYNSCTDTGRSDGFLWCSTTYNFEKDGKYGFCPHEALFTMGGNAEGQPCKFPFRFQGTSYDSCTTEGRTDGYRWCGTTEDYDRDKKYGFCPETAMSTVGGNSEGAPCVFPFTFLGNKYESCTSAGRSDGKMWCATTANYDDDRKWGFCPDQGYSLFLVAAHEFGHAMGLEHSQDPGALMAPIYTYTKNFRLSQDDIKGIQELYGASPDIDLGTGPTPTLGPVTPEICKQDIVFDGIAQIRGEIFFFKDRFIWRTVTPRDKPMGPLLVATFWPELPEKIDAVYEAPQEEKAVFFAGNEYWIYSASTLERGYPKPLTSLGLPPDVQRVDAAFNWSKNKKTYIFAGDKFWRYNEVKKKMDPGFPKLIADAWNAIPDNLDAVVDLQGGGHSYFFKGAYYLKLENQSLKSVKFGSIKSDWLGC
The assay can be described thus: MMP-2 inhibition assay (fluorogenic peptide substrate). It is filed as biochemical. Particulars: for IC50: mean ± SE, n.d: not detected, Fig. 5d unit inferred, µM, read-out: IC50. As for the experimental part: (§1) The inhibition by the small molecule compounds against MMP-2/MMP-9 was measured using an assay probing the enzyme proteolytic activity on the substrate DNP-Pro-Leu-Gly-Met-Trp-Ser-Arg (Enzo Life Sciences, USA). All assays were performed in the assay buffer containing 50 mM Tris, 100 mM NaCl. 5 mM CaCl2, and 0.1% Brij 35, pH 7.5. Human proMMP-2 and proMMP-9 were purchased from Sino biological (Germany). The proMMPs were activated by 1 mM APMA in the assay buffer at 37 °C for 2 h. After activation, MMP-2 was diluted to 6.5 nM of final assay concentration, and MMP-9 was diluted by the buffer to reach 10 nM of final assay concentration. In each well, 49 μl of enzyme solution was incubated with 1 μl of compounds of series of concentration (nM-mM in DMSO) at RT for 30 min. 2 μl of the FRET substrate was added right before the measurement at a final concentration of 25 μM. The rate of hydrolysis was monitored by quantifying the emission at 360 nm (ex: 280 nm). The emission was measured with intervals of the 30 s for 30 min with Synergy H1 Plate Reader (Agilent, USA). The measurements were done in triplicate. […] Then, curves were plotted as a function of the concentration of the inhibitor against the relative enzyme activity. Vmax was derived from the detected […] signal for each concentration and logistic fitting was performed to obtain IC50 values using Origin 2019b (OriginLab).

A further assay has as its target T2, MMP-9 (Homo sapiens, UniProt P14780).
T2 construct: purchased Sino Biological 10327-HNAH
The assay can be described thus: MMP-9 inhibition assay (fluorogenic peptide substrate). It is filed as biochemical. Conditions: for IC50: mean ± SE, n.d: not detected, Fig. 5e prints no unit, µM, read-out: IC50. Details: remaining enzyme activity (% of control): scale not given here. The procedure: as §1

T2 sequence (P14780 107-707 limits assumed): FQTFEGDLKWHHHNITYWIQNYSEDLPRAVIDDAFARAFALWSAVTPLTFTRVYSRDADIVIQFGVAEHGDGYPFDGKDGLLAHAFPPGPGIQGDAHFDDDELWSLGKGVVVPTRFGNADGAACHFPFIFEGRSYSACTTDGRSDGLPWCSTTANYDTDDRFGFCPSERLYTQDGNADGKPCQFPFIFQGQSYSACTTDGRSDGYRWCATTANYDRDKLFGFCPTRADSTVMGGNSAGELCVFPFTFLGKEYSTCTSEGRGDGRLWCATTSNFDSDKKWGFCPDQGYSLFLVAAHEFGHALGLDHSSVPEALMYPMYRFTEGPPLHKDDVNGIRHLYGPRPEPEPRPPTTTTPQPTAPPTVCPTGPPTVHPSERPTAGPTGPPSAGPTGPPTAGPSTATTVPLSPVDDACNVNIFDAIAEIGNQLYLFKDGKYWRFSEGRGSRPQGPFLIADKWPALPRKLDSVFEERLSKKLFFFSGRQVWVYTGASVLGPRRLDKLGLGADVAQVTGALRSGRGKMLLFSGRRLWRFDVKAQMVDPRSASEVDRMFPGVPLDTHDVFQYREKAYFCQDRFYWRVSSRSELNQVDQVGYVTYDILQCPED

Regarding `Cc1cc(=O)[nH]c(-n2nc(C)c(CCC(=O)NCCOCCOCCNC(=O)c3cnc4c(c3)nc(O)n4C)c2C)n1` [693+826 Linker 10], the “remaining activity (%)” value on MMP-2 (MMP-2, concentration 0.12 µM) is recorded as 88.40; on MMP-2 (MMP-2, concentration 0.49 µM), 91.73; at MMP-2 (MMP-2, concentration 1.95 µM) it was 91.10; at MMP-2 (MMP-2, concentration 7.81 µM), 90.16; at MMP-2 (MMP-2, concentration 31.25 µM), 89.04; on MMP-2 (MMP-2, concentration 125.00 µM) it was 84.64. The “remaining activity (%)” value on MMP-2 (MMP-2, concentration 500.00 µM) amounted to 68.06. For the same compound, the “remaining enzyme activity (% of control)” value on MMP-9 (MMP-9, concentration 0.12 µM) was 93.04; at MMP-9 (MMP-9, concentration 0.49 µM), 87.11; at MMP-9 (MMP-9, concentration 1.95 µM) it was 89.00; at MMP-9 (MMP-9, concentration 7.81 µM) it was 87.83; on MMP-9 (MMP-9, concentration 31.25 µM), 75.00; at MMP-9 (MMP-9, concentration 125.00 µM), 69.92. The “remaining enzyme activity (% of control)” value on MMP-9 (MMP-9, concentration 500.00 µM) is 55.88.

Consider `O=C(/C=C/CCCCNC(=O)c1cncc(O)c1)CC(=O)NCCNC(=O)Cn1cnc2c(oc3ccccc32)c1=O` [182+828 Linker 12], for which, at MMP-2 (MMP-2, concentration 0.0168 µM, read-out: Mean (MMP-2, Supplementary fig 16)), the remaining activity at 0.0168 µM came out at 102%. Besides, the remaining activity at 0.08 µM at MMP-2 (MMP-2, concentration 0.08 µM, read-out: Mean (MMP-2, Supplementary fig 16)) came out at 100%. For the same compound, the remaining activity at 0.42 µM on MMP-2 (MMP-2, concentration 0.42 µM, read-out: Mean (MMP-2, Supplementary fig 16)) came out at 98.9%. The remaining activity at 2.1 µM at MMP-2 (MMP-2, concentration 2.10 µM, read-out: Mean (MMP-2, Supplementary fig 16)) was determined as 113%. Moreover, the remaining activity at 10.52 µM on MMP-2 (MMP-2, concentration 10.52 µM, read-out: Mean (MMP-2, Supplementary fig 16)) was 85.5%. The remaining activity at 52.6 µM at MMP-2 (MMP-2, concentration 52.60 µM, read-out: Mean (MMP-2, Supplementary fig 16)) is 48.1%. Also, on MMP-2 (MMP-2, concentration 263.00 µM, read-out: Mean (MMP-2, Supplementary fig 16)), the remaining activity at 263 µM stood at 6.96%. Also, at MMP-2 (MMP-2, concentration 1315.00 µM, read-out: Mean (MMP-2, Supplementary fig 16)), the remaining activity at 1315 µM turned out to be 0%. Moreover, the IC50 on MMP-2 is 50.3 ± 11.1 µM; on MMP-9, 45.9 ± 24.2 µM. The remaining activity at 0.0466 µM on MMP-9 (MMP-9, concentration 0.0466 µM, read-out: Mean (MMP-9, Supplementary fig 16)) worked out at 97.3%. The remaining activity at 0.23 µM at MMP-9 (MMP-9, concentration 0.23 µM, read-out: Mean (MMP-9, Supplementary fig 16)) turned out to be 81.8%. Further, on MMP-9 (MMP-9, concentration 1.17 µM, read-out: Mean (MMP-9, Supplementary fig 16)), the remaining activity at 1.17 µM is 81.4%. Besides, the remaining activity at 5.83 µM on MMP-9 (MMP-9, concentration 5.83 µM, read-out: Mean (MMP-9, Supplementary fig 16)) stood at 70.8%. Also, the remaining activity at 29.14 µM on MMP-9 (MMP-9, concentration 29.14 µM, read-out: Mean (MMP-9, Supplementary fig 16)) stood at 63.8%. Moreover, the remaining activity at 145.72 µM at MMP-9 (MMP-9, concentration 145.72 µM, read-out: Mean (MMP-9, Supplementary fig 16)) was determined as 15.2%. The remaining activity at 728.6 µM on MMP-9 (MMP-9, concentration 728.60 µM, read-out: Mean (MMP-9, Supplementary fig 16)) was 0%.

For `Cn1c(O)nc2cc(C(=O)NCCNC(=O)CSCCNC(=O)Cn3cnc4c(oc5ccccc54)c3=O)cnc21` [182+826 Linker 24], the “remaining activity (%)” value amounted to 97.26 on MMP-2 (MMP-2, concentration 0.09 µM); 110.41 on MMP-2 (MMP-2, concentration 0.36 µM); 108.70 at MMP-2 (MMP-2, concentration 1.46 µM); 101.42 on MMP-2 (MMP-2, concentration 5.83 µM); 109.20 on MMP-2 (MMP-2, concentration 23.31 µM); 102.62 at MMP-2 (MMP-2, concentration 93.25 µM). In addition, the “remaining activity (%)” value at MMP-2 (MMP-2, concentration 373.00 µM) came out at 72.08. The “remaining enzyme activity (% of control)” value was 91.31 on MMP-9 (MMP-9, concentration 0.09 µM); 105.17 at MMP-9 (MMP-9, concentration 0.36 µM); 94.51 at MMP-9 (MMP-9, concentration 1.46 µM); 85.81 at MMP-9 (MMP-9, concentration 5.83 µM); 80.00 on MMP-9 (MMP-9, concentration 23.31 µM); 70.35 on MMP-9 (MMP-9, concentration 93.25 µM). Also, on MMP-9 (MMP-9, concentration 373.00 µM), the “remaining enzyme activity (% of control)” value amounted to 44.33. Also, the IC50 on MMP-9 is 281 ± 97.2 µM.

On to `O=C(C=CCCCCNC(=O)c1cncc(O)c1)CC(=O)NCC12CC3CC(CC(C3)C1)C2` [66+828 Linker 12], for which the “remaining activity (%)” value is listed as 99.10 at MMP-2 (MMP-2, concentration 0.0156 µM); 102.47 on MMP-2 (MMP-2, concentration 0.08 µM); 95.82 on MMP-2 (MMP-2, concentration 0.39 µM); 94.73 at MMP-2 (MMP-2, concentration 1.95 µM); 93.23 at MMP-2 (MMP-2, concentration 9.75 µM); 86.38 on MMP-2 (MMP-2, concentration 48.76 µM). The “remaining activity (%)” value was 70.35 at MMP-2 (MMP-2, concentration 243.80 µM) and 22.32 on MMP-2 (MMP-2, concentration 1219.00 µM). Also, the IC50 at MMP-2 worked out at 488 ± 45.3 µM; on MMP-9, 77.4 ± 13.9 µM. Also, the “remaining enzyme activity (% of control)” value at MMP-9 (MMP-9, concentration 0.08 µM) is given as 103.52; at MMP-9 (MMP-9, concentration 0.39 µM), 103.70; on MMP-9 (MMP-9, concentration 1.95 µM), 101.49; at MMP-9 (MMP-9, concentration 9.75 µM), 97.37; on MMP-9 (MMP-9, concentration 48.76 µM), 61.33; on MMP-9 (MMP-9, concentration 243.80 µM), 18.36. Also, the “remaining enzyme activity (% of control)” value on MMP-9 (MMP-9, concentration 1219.00 µM) is on record as 3.09.

For orientation: IC50 means the concentration that gives 50% inhibition.
